From PMC7966987, “Insights into the catalytic properties of the mitochondrial rhomboid protease PARL” (The Journal of Biological Chemistry, 2021)

B1: HiGlpG: bacterial rhomboid protease from Haemophilus influenzae (protein, UniProt P44783 1-192, looked up)
Rhomboid protease GlpG: MKNFLAQQGKITLILTALCVLIYLAQQLGFEDDIMYLMHYPAYEEQDSEVWRYISHTLVHLSNLHILFNLSWFFIFGGMIERTFGSVKLLMLYVVASAITGYVQNYVSGPAFFGLSGVVYAVLGYVFIRDKLNHHLFDLPEGFFTMLLVGIALGFISPLFGVEMGNAAHISGLIVGLIWGFIDSKLRKNSLE
B2: AarA: bacterial rhomboid protease from P. stuartii (protein, UniProt P46116 1-281, looked up)
Rhomboid protease AarA: MAEQQNPFSIKSKARFSLGAIALTLTLVLLNIAVYFYQIVFASPLDSRESNLILFGANIYQLSLTGDWWRYPISMMLHSNGTHLAFNCLALFVIGIGCERAYGKFKLLAIYIISGIGAALFSAYWQYYEISNSDLWTDSTVYITIGVGASGAIMGIAAASVIYLIKVVINKPNPHPVIQRRQKYQLYNLIAMIALTLINGLQSGVDNAAHIGGAIIGALISIAYILVPHKLRVANLCITVIAASLLTMMIYLYSFSTNKHLLEEREFIYQEVYTELADANQ

Tests used:
[1] = target: T1, PARLΔ77 (Homo sapiens, UniProt Q9H300); experiment: Multiplex substrate profiling by mass spectrometry (MSP-MS), PARLΔ77 in proteoliposomes; assay type: biochemical; details: PARLΔ77 1 μM in PL containing PC, PE and CL, peptides 0.5 μM each, pH 7.0, without DDM, LC-MS/MS, quadruplicate; for FC_60min (fold change of cleavage product, Annotated_Sequence): 60 vs 0 min; for FC_240min (fold change of cleavage product, Annotated_Sequence): 240 vs 0 min
T1 construct: GFP-hexahistidine (behind a TEV cleavage site) (C, cleaved yes); made in house; host or cells: Pichia pastoris
T1 sequence (Q9H300 78-379): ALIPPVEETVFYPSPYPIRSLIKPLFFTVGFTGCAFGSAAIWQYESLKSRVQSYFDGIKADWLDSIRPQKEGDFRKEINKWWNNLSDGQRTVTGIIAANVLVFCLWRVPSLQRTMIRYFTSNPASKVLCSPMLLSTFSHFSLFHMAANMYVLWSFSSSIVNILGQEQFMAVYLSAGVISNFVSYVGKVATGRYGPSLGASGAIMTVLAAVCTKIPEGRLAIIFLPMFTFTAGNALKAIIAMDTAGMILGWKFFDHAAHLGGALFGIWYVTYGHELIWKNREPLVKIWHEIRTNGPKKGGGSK
Procedure: (§1) Multiplex substrate profiling by mass spectrometry (MSP-MS) assays was performed in quadruplicate. In total, 1 μM of PARLΔ77 was incubated with an equimolar mixture of 228 synthetic tetradecapeptides at a final concentration of 0.5 μM for each peptide in 50 mM Tris-HCl pH 7.0, 150 mM NaCl, 10% glycerol, with or without 0.1% DDM. The sequence of each peptide is listed in Supplementary Data File. These peptides have been validated as substrates for a wide variety of proteolytic enzymes (PMID 23023596, 24073241, 25944934) including bacterial rhomboid proteases (30705125). For each assay, 20 μl of the reaction mixture was removed after 0, 60, and 240 min of incubation. Enzyme activity was quenched by adding GuHCl (MP Biomedicals) to a final concentration of 6.4 M, and samples were immediately stored at –80 °C. All samples were desalted using C18 spin columns and dried by vacuum centrifugation.
(§2) Approximately 2 μg of peptides was injected into a Q-Exactive Mass Spectrometer (Thermo) equipped with an Ultimate 3000 HPLC. Peptides were separated by reverse-phase chromatography on a C18 column (1.7 μm bead size, 75 μm × 25 cm, 65 °C) at a flow rate of 300 nl/min using a 60-min linear gradient from 5% to 30% B, with solvent A: 0.1% formic acid in water and solvent B: 0.1% formic acid in acetonitrile. Survey scans were recorded over a 150–2000 m/z range (70,000 resolutions at 200 m/z, AGC target 3 × 10^6, 100 ms maximum). MS/MS was performed in data-dependent acquisition mode with HCD fragmentation (28 normalized collision energy) on the 12 most intense precursor ions (17,500 resolutions at 200 m/z, AGC target 1 × 10^5, 50 ms maximum, dynamic exclusion 20 s).
(§3) Data was processed using PEAKS 8.5 (Bioinformatics Solutions Inc). MS^2 data were searched against the 228 tetradecapeptide library sequences with decoy sequences in reverse order. A precursor tolerance of 20 ppm and 0.01 Da for MS^2 fragments was defined. No protease digestion and modification were specified. Data were filtered to 1% peptide-level false discovery rates with the target-decoy strategy. Peptides were quantified with label-free quantification and data are normalized by medians and filtered by 0.3 peptide quality. Missing and zero values are imputed with random normally distributed numbers in the range of the average of smallest 5% of the data ± SD. Cleaved sequences were defined as peptide products that increase by a fold change of >8 and q value <0.05 (by Student t test) between 0 min and 240 min. IceLogo software was used for visualization of amino-acid frequency surrounding the cleavage sites. Amino acids that were most frequently observed (above axis) and least frequently observed (below axis) from P4 to P4ʹ positions were illustrated. Norleucine (Nle) was represented as “n” in the reported profiles. Mass spectrometry data and searching results have been deposited in MassIVE with accession number, MSV000085295.

[2] = target: T1, PARLΔ77; experiment: Multiplex substrate profiling by mass spectrometry (MSP-MS), PARLΔ77 in DDM; assay type: biochemical; details: PARLΔ77 1 μM, 0.1% DDM, peptides 0.5 μM each, LC-MS/MS, quadruplicate; for FC_60min (fold change of cleavage product, Annotated_Sequence): pH 7.0, 60 vs 0 min; for FC_240min (fold change of cleavage product, Annotated_Sequence): pH 7.0, 240 vs 0 min
Procedure: as §1, §2, §3

[3] = test system: preferred substrates; details: preferred substrates, in DDM; cited from earlier work
Procedure: The bacterial rhomboid proteases from Haemophilus influenzae (HiGlpG) and P. stuartii (AarA) cleave at a rate of roughly two per minute for their preferred substrates in DDM, while the E. coli rhomboid protease GlpG cleaves slowly in DDM, much like PARL, at a rate of approximately six per hour and with a rate of 2.5 min^−1 in PLs ([26], [34], [35]).

Row | Molecule | FC_60min (fold change of cleavage product, Annotated_Sequence) [1] | FC_240min (fold change of cleavage product, Annotated_Sequence) [1] | FC_60min (fold change of cleavage product, Annotated_Sequence) ([2]; TDP160: product INDFLVR.T) | FC_240min (fold change of cleavage product, Annotated_Sequence) ([2]; TDP160: product INDFLVR.T) | also measured
1 | AETSIKVFMPYYGH [TDP91, synthetic tetradecapeptide of the 228-peptide library] | 43.5042 | 295.878 | – | – | –
2 | AMTDRGWYLAIQAV [TDP15, synthetic tetradecapeptide of the 228-peptide library] | – | – | 247.32 | 689.515 | –
3 | GPKLTYDFWIQNLP [TDP89, synthetic tetradecapeptide of the 228-peptide library] | – | – | 270.23 | 1077.04 | –
4 | GQYPMFVKISTTHW [TDP96, synthetic tetradecapeptide of the 228-peptide library] | 35.4935 | 328.605 | – | – | –
5 | INDFLVRTWKMPGL [TDP160, synthetic tetradecapeptide of the 228-peptide library] | – | – | 264.961 | 895.528 | FC_60min (fold change of cleavage product, Annotated_Sequence) ([2]; product F.LVRTWKLPGL): 150.552; FC_240min (fold change of cleavage product, Annotated_Sequence) ([2]; product F.LVRTWKLPGL): 507.811
6 | MHSPWTMANFLRGP [TDP94, synthetic tetradecapeptide of the 228-peptide library] | 254.488 | 1890.88 | 682.585 | 2284.43 | –
7 | NVDWTAPQLIEYLD [TDP138, synthetic tetradecapeptide of the 228-peptide library] | 42.87 | 40.3813 | – | – | –
8 | QAVRPNGMYWHYLM [TDP216, synthetic tetradecapeptide of the 228-peptide library] | 43.2174 | 200.338 | – | – | –
9 | B1 | – | – | – | – | cleavage rate [3]: roughly two
10 | B2 | – | – | – | – | cleavage rate [3]: roughly two
